Assays:
Assay type in all cases: ADME, organism-based
Plasma [1] = assay: Fraction unbound in C57BL6 mouse plasma at 25 mg/kg, po; parameters: dose 25 mg/kg, route oral; conditions: in vivo
Plasma [2] = assay: Fraction unbound in C57BL6 mouse plasma at 100 mg/kg, po; parameters: dose 100 mg/kg, route oral; conditions: in vivo
Plasma [3] = assay: Fraction unbound in C57BL6 mouse plasma at 25 mg/kg, po after 12 hrs; parameters: dose 25 mg/kg, route oral; conditions: in vivo
[4] = Oral bioavailability in C57BL6 mouse at 5 mg/kg; conditions: in vivo
Plasma [5] = assay: Fraction unbound in C57BL6 mouse plasma at 15 mg/kg, po; parameters: dose 15 mg/kg, route oral; conditions: in vivo
Plasma [6] = assay: Fraction unbound in C57BL6 mouse plasma at 25 mg/kg, po after 4 hrs; parameters: dose 25 mg/kg, route oral; conditions: in vivo
Plasma [7] = assay: Fraction unbound in C57BL6 mouse plasma at 25 mg/kg, po after 1 hr; parameters: dose 25 mg/kg, route oral; conditions: in vivo
[8] = Volume of distribution at steady state in C57BL6 mouse at 2 mg/kg, iv; parameters: dose 2 mg/kg, route intravenous; conditions: in vivo, read-out: Vdss
[9] = Oral bioavailability in Sprague-Dawley rat at 5 mg/kg; conditions: in vivo
[10] = Cmax in C57BL6 mouse at 5 mg/kg, po; parameters: dose 5 mg/kg, route oral; conditions: in vivo
Plasma [11] = assay: Fraction unbound in C57BL6 mouse plasma at 25 mg/kg, po after 8 hrs; parameters: dose 25 mg/kg, route oral; conditions: in vivo
[12] = Volume of distribution at steady state in Sprague-Dawley rat at 2 mg/kg, iv; parameters: dose 2 mg/kg, route intravenous; conditions: in vivo, read-out: Vdss
Plasma [13] = assay: Fraction unbound in C57BL6 mouse plasma at 50 mg/kg, po; parameters: dose 50 mg/kg, route oral; conditions: in vivo
Plasma [14] = assay: Fraction unbound in C57BL6 mouse plasma at 35 mg/kg, po; parameters: dose 35 mg/kg, route oral; conditions: in vivo
[15] = Cmax in Sprague-Dawley rat at 5 mg/kg, po; parameters: dose 5 mg/kg, route oral; conditions: in vivo
[16] = AUC (0 to 24 hrs) in Sprague-Dawley rat at 5 mg/kg, po; parameters: time < 24 hr, dose 5 mg/kg, route oral; conditions: plasma

| Cp(f) (Plasma [1]) [nM] | Cp(f) (Plasma [2]) [nM] | Cp(f) (Plasma [3]) [nM] | bioavailability [4] [%] | Cp(f) (Plasma [5]) [nM] | Cp(f) (Plasma [6]) [nM] | Cp(f) (Plasma [7]) [nM] | Vd [8] [L/kg] | bioavailability [9] [%] | Cmax [10] [nM] | Cp(f) (Plasma [11]) [nM] | Vd [12] [L/kg] | Cp(f) (Plasma [13]) [nM] | Cp(f) (Plasma [14]) [nM] | Cmax [15] [nM] | AUC(0-t) at 24 h [16] [ng·h/mL] | Structure (SMILES) |
| --- | --- | --- | --- | --- | --- | --- | --- | --- | --- | --- | --- | --- | --- | --- | --- | --- |
| 708 | 1482 | 498 | 46 | 95 | 1142 | 1165 | 0.98 | 34 | 5800 | 882 | 1.8 | 988 | 618 | 1200 | – | CCOc1ccc(N2CCN(c3noc(C4(NC(C)=O)CCC4)n3)[C@@H](C)C2)c(C)c1 |
| – | – | – | – | – | – | – | – | 17 | – | – | 12.8 | – | – | 380 | 291 | CCOc1ccc(N2CCN(c3noc(CC)n3)[C@@H](C)C2)c(C)c1 |

Source: ChEMBL document CHEMBL3108682, “Piperazine oxadiazole inhibitors of acetyl-CoA carboxylase” (J Med Chem, 2013)
